Patent US20260209135A1, “METHOD OF FORTIFYING FERTILIZER WITH LIPO-CHITOOLIGOSACCHARIDE (LCO)” (priority 2022, published 2026)

Experiments:
[1] = test system: Beans (Phaseolus vulgaris L); assay: Beans seedlings treated with LCO: root length; type: in vivo; details: vs control seedlings without LCO, FIG. 28
Description: (§1) FIG. 28 represents a graph showing root length measured @ 10 DAS in beans, horse gram and green gram seedlings: untreated control and treated with LCO.

Corn [2] = assay: Corn field study, bulk granular fertilizer with LCO (Example 8); type: in vivo; details: bulk fertilizer combined with LCO compared to fertilizer alone
Description: The field experiment was conducted at an agricultural farm in Bangalore in Rabi season of 2020. The study was conducted as randomized complete block design with 7 treatments with 9 replications and each plot measured about 9 m^2 in area. Hybrid corn seeds of a popular brand was used for the trial. Different grades of Bulk fertilizers are available in market generally sold in 50 kg packages. The N:P:K-19:19:19 grade bulk fertilizer was used for the current study. Bulk fertilizer was combined with 3 doses of LCO at the rate of 11.25 ml, 22.5 ml, and 33.75 ml per 50 kg bag of fertilizer. The application dose was calculated based on the crop and standard fertilizer recommendation to the select crop. About 50% quantity of the treatments were applied to the crop as basal application at the time of planting and rest of the quantity for each treatment was applied at 40 DAS. [table] [table] The trial was harvested in January 2021, when the cobs were fully matured. The yield parameters such as number of cobs per plot and cob yield per plot were recorded. The number of cobs per plot was normalized based on plant density per plot. The cobs of each plot were threshed separately and grain weight per plot was recorded and interpreted as Kg per plot normalized to number of plants per plot.

[3] = test system: Horse gram (Macrotyloma uniflorum); assay: Horse gram seedlings treated with LCO: root length; type: in vivo; details: vs control seedlings without LCO, FIG. 28
Description: as §1

Corn [4] = assay: Corn microplot trial, granular fertilizer fortified with LCO (Example 5); type: in vivo, Maize; details: LCO at 22.5 ml per bag of GF, over control
Description: Maize seeds were sown directly to microplot on 29 Oct. 2020 and the experiment was completed by third week of January 2021. Experiment was conducted in 3*3 microplots in 7 replications for treatment and 6 replications for control, microplots were distributed in a completed random block experimental design. Treatment was imposed by fertigation at 2 times point with doses divided in to 50% each first at time of transplanting and second one at 40 days after transplanting (Table 11). Plants were grown by following the standard package of practices developed by the university of Agricultural Science Bangalore, for further details information have a look at the crop calendar (Table 11). [table] Treatment was in a complete random block design, with 7 replications per treatment and 6 replication per control. Following parameter/observation WAS recorded: • 1. Plant number per plot • 2. Plant height • 3. Chlorophyll content • 4. Stem girth • 5. Cob number • 6. Cob dry weight • 7. Yield/grain weight per plot or plant Data were analysed with JMP software by comparing means using all pairs Tukey HSD. Error bars shown in graphs are SD. Bar graphs represent the mean. Different alphabet indicates significant difference between the treatment. […] FIG. 8: Plant height were measured at three different time point viz 33, 53 and 138 days after sowing, data represented here are means and error bar represent standard deviation. NS denotes no significant difference between the treatment.

Cabbage [5] = assay: Cabbage field study, bulk granular fertilizer with LCO (Example 7); type: in vivo; details: bulk fertilizer combined with LCO compared to fertilizer alone
Description: The field experiment was conducted at an agricultural farm in Bangalore in Rabi season of 2020. The study was conducted in randomized complete block design with 7 treatments and 7 replications per treatment with each plot measuring approximately 9 m^2 in area (Table-12 & 13). Cabbage seedlings of a popular variety was used for the trial. Different grades of bulk fertilizers were available in market generally sold in 50 kg packages. The N:P:K-19:19:19 grade bulk fertilizer was used for the current study. Treatments of LCO fortified bulk fertilizer with 3 doses of LCO 11.25 ml, 22.5 ml, and 33.75 ml were formulated per 50 kg bag of fertilizer. The application dose was calculated based on the crop and standard fertilizer recommendation to the select crop. About 50% of calculated quantity of fertilizers were applied to the crop on a per plot basis as basal application at the time of planting and rest of the quantity of each treatment was applied at 40 days after transplanting (DAT). [table] […] The yield per plot was measured by weighing all the heads harvested from each plot. The vertical and horizontal diameter of the head was measured using a measuring tape and the volume of each cabbage head was calculated by the following formula V=4/3·π·(a)^2·b • Where, • V=Volume of the head • a=Horizontal diameter of the head • b=Vertical diameter of the head

Capsicum = Capsicum net house trial, WSF fortified with LCO (Example 2); type: in vivo, Capsicum (Diana variety); details: fortification of WSF with LCO vs WSF only
[6] = test system: finger millet (Eleusine coracana) seedlings; assay: Ragi seedlings treated with LCO: root hairs and root length; type: in vivo
Description: FIG. 27 represents a graph showing number of root hairs in seedlings of ragi @ 3 DAS: untreated control (UTC) and treated with LCO.
(§2) FIG. 29 represents a graph showing root length measured @ 4 DAS in ragi and rice seedlings: untreated control and treated with LCO.

[7] = test system: Green gram (Vigna radiata); assay: Green gram seedlings treated with LCO: root length; type: in vivo; details: vs control seedlings without LCO, FIG. 28
Description: as §1

Cabbage [8] = assay: Cabbage microplot trial, granular fertilizer fortified with LCO (Example 4); type: in vivo, Cabbage (Enza zaden variety)
[9] = test system: White French Beans seedlings; assay: Seedling bioassay in tubes, WSF (19:19:19) fortified with LCO (Example 3); type: in vivo; details: 10 days
Description: [table] Locally available beans variety were used for the study. Experiment was conducted in 50 ml falcon tube filled with soilrite which acts as growing substrate. Treatment solution as given in the table were prepared in demineralised water and 10 ml of respective solution were applied to each tube after sowing (2.5 cm depth). Fortified, unfortified WSF and LCO were tested at 2 doses along with absolute control. Subsequently, the seedlings were maintained under […] (200 […], 12 hrs light and dark), ambient temperature of 25 degree Celsius. The tubes were incubated for 10 days and irrigated with water as and when required. After 10 days, the experiment was terminated and the plants were phenotyped for recording the traits vz Hypocotyl length, epicotyl length, shoot length and root length.

Rice (Oryza sativa) = assay: Rice seedlings treated with LCO: root length; type: in vivo; details: vs control seedlings without LCO, FIG. 29
Description: as §2

Corn [10] = assay: Corn pot study, LCO and urease inhibitor fortified urea and WSF (Example 6); type: in vivo; details: urea study
Description: NBPT (N-(n-butyl) thiophosphoric triamide) was suspended in propylene glycol (PG) and dimethyl sulphoxide (DMSO) in the ratio of 20:50:30. In the current experiment two different doses of NBPT was fortified to the fertilizers, low dose consisting of 400 ppm and high dose 800 ppm was fortified per Kg of fertilizer.
The fortifying mixture consists of 0.7 ml of LCO (1.90e-5) and 2 ml of NBPT (400 ppm) was fortified to 1 Kg of fertilizer. Whereas another fortifying mixture consists of 0.7 ml of LCO (1.90e-5) and 4 ml of NBPT (800 ppm) was fortified to 1 Kg of fertilizer. After fortification samples were taken for conducting pot trails.
A pot study was conducted for evaluating LCO and Urease inhibitor fortified Urea and WSF on an experimental crop. Corn was selected as a subject crop for the pot study. The experiment consists of 13 treatments as listed below. The pot study is done in pots of 2 Kg soil capacity. The experiment duration is 20 days.
• 1. Untreated Control • 2. WSF • 3. WSF+LCO • 4. WSF+LCO+UI (Low-400 ppm) • 5. […]
From the onset of the experiment plant height and chlorophyll was measured at every 10th, 15th, and 20th day after sowing. Plant height and dry biomass of leaves and root were measured manually using scales, whereas chlorophyll was measured using chlorophyll meter. Leaf area was calculated based on the dry weight method, by developing a dry-weight weight versus leaf area curve for corn leaf samples of known area.
Available nitrogen from the soil was estimated from the soil samples using wet aggregate analysis method of estimation. […] The available nitrogen is expressed as kg/ha.
Total nitrogen as percent was determined from the dried plant samples using Kjeldahl method of estimation. The total nitrogen in plant is expressed as percentage. Nitrogen uptake was calculated by multiplying the shoot biomass with the nutrient concentration. Nitrogen use efficiency (NUE) is determined as the percent of the applied nitrogen that was taken up by the plants.
From the onset of the experiment plant height and chlorophyll was measured every 5 days interval starting from 10th DAS. […]

Cabbage [11] = assay: Cabbage microplot trial, WSF fortified with LCO (Example 1); type: in vivo, Cabbage (Enza zaden variety); details: average, vs control (only WSF)
Description: Cabbage seedling (Enza zaden variety) were transplanted on 16 Oct. 2020 and the experiment was completed by end of December 2020. Experiment was conducted in 3*3 microplots in 9 replications for treatment and control, microplots were distributed in a completed random block experimental design. Treatment was imposed by fertigation at 3 times point with doses divided in to 22, 39 and 39% respectively (Table 6). Plants were grown by following the standard package of practices developed by the university of Agricultural Science Bangalore. [table] Treatment was in a complete random block design, with 9 replications per treatment. Following parameter/observation was recorded: • 1. Plant number per plot • 2. Fruit weight per plot • 3. Fruit weight per plant • 4. Vertical circumference • 5. Radial circumference Data were analysed with JMP software by comparing means using all pairs Tukey HSD. Error bars shown in graphs are SD. Bar graphs represent the mean. Different alphabet indicates significant difference between the treatment.

[12] = at low pH; cited from earlier work

SMILES: CCCCCC/C=C\CCCCCCCCCC(=O)N[C@H]1[C@H](O[C@H]2[C@H](O)[C@@H](NC(C)=O)[C@H](O[C@H]3[C@@H](O)[C@@H](NC(C)=O)[C@H](O[C@H]4[C@H](O)[C@@H](NC(C)=O)[C@H](O[C@H]([C@H](O)[C@H](C=O)NC(C)=O)[C@H](O)CO)O[C@@H]4CO)O[C@@H]3O)O[C@@H]2CO)O[C@H](CO)[C@@H](O)[C@@H]1O [LCO, Lipo-chitooligosaccharide]
- root length, result in words [1]: increases the length of roots
- average number of cobs per plot, result in words (Corn [2]): enhanced
- grain yield per plot, result in words (Corn [2]): enhanced
- root length, result in words [3]: increases the length of roots
- increase in cob weight per plot (Corn [4]): ≤ 10
- increase in grain weight per plot (Corn [4]): ≤ 9
- increase in number of cobs per plant (Corn [4]): ≤ 18%
- average volume of cabbage heads, result in words (Cabbage [5]): enhanced average volume of cabbage heads
- capsicum yield, result in words (Capsicum): increase in yield, even though there is no statistically significant difference
- number of root hairs, result in words ([6]; 3 days after treatment, vs untreated control, FIG. 27): increase root hairs
- root length, result in words ([6]; vs control seedlings without LCO, FIG. 29): increases the length of roots
- root length, result in words [7]: increases the length of roots
- cabbage circumference, result in words (Cabbage [8]; GF fortified with LCO vs control (only GF)): marginal increase in circumference of cabbage heads
- increase in circumference (Cabbage [8]; cabbage, GF 19:19:19 with LCO with or without proxel, average, vs control (only GF)): 0.4%
- Epicotyl length ([9]; concentration 8.75E−12 %): 1.75 cm
- Hypocotyl length ([9]; concentration 8.75E−12 %): 9 cm
- Root length ([9]; concentration 8.75E−12 %): 12.12 cm
- Shoot length (hypocotyl + Epicotyl length) ([9]; concentration 8.75E−12 %): 10.77 cm
- Epicotyl length ([9]; concentration 8.75E−14 %): 1.87 cm
- Hypocotyl length ([9]; concentration 8.75E−14 %): 8.3 cm
- Root length ([9]; concentration 8.75E−14 %): 13.41 cm
- Shoot length (hypocotyl + Epicotyl length) ([9]; concentration 8.75E−14 %): 10.26 cm
- root length, result in words (Rice (Oryza sativa)): increases the length of roots
- total nitrogen (leaf nitrogen content), result in words (Corn [10]; 20 days old corn seedlings, Kjeldahl, FIG. 22): much higher than urea+UI at 400 ppm and equal to urea+UI at 800 ppm
- leaf dry weight, result in words (Corn [10]; corn seedlings, 20 DAS, FIG. 18): better than WSF alone
- leaf area, result in words (Corn [10]; corn seedlings, 20 DAS, FIG. 20): better than WSF alone
- increase in yield (Cabbage [11]; cabbage yield (kg/plot), LCO with or without proxel): 7%
- increase in circumference (Cabbage [11]; cabbage, WSF 19:19:19 with LCO with or without proxel): 2%

SMILES: CCCCNP(N)(N)=S [NBPT, N-(n-butyl) thiophosphoric triamide]
- time within which decayed [12]: ≤ 24 h
